Like-named read-outs stand apart in the source and are kept apart here.
Target: T1, Pancreatic lipase (from porcine pancreas, type II) (Sus scrofa, UniProt P00591)
T1 construct: Pancreatic lipase (from porcine pancreas, type II, 100-500 units/mg, L3126); purchased Sigma-Aldrich L3126; host or cells: porcine pancreas (tissue-derived)
T1 sequence (P00591 1-450): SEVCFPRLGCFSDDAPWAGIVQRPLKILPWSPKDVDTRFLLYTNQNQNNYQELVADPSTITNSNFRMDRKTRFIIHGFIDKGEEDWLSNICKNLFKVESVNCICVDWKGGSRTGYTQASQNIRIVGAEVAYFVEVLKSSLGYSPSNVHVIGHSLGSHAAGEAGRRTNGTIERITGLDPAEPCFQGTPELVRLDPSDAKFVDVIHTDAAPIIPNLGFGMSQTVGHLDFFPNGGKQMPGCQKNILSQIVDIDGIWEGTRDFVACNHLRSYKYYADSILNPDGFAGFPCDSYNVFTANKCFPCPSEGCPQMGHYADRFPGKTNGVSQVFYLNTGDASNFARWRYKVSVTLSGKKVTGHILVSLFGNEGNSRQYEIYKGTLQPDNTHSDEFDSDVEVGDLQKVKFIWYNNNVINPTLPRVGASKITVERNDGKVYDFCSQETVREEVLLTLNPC
Assay: Pancreatic lipase (PL) inhibitory activity assay using pNPP as substrate
Assay type: biochemical
Method: Pancreatic Lipase Activity Assay Preparation The pancreatic lipase activity assay uses 4-nitrophenyl palmitate (pNPP) as colorimetric lipase substrate. […] Tris-Borate-EDTA buffer (10X, pH 8.3, PB 1040) was purchased from Vivantis Technologies (Selangor, Malaysia).
Buffer solution was prepared by diluting the 10X Tris-Borate-EDTA buffer (890 mM) into 50 mM solution, followed by addition of 0.35% (m/v) sodium deoxycholate, and adjust pH to 8.3. pNPP solution was prepared by adding pNPP into isopropanol to make a 1.5 mg/mL solution. Both solutions were stored in fridge (4° C.) for further tests. PL solution was prepared by suspending PL in 4° C. buffer solution (10 mg/mL), shaking by vortex mixer for 2 min, and centrifuging at 4° C., 6000 rpm for 5 min. The supernatant was divided into several 0.5 mL aliquots in 0.6 mL PP centrifuge tubes and stored in freezer (-18° C.) for further tests.
High-throughput Pancreatic Lipase Activity Assay. For each sample, 20 µL of extract was transferred into a 0.6 mL PP centrifuge tube, dry up at room temperature for 10 min, followed by adding 300 µL buffer solution. The mixture was sonicated thoroughly in water bath sonicator, 150 µL of the sample was transferred onto a 96-well microplate (Corning, clear polystyrene, USA), and incubated in microplate reader (Synergy HT, Biotek Instruments Inc., Winooski, VT, USA) at 37° C. for 15 min. Meanwhile, frozen lipase solution was thawed in room temperature, 10 µL of which was added into the well, and incubate at 37° C. for another 10 min. Finally, the reaction starts by adding 10 µL pNPP solution into each well. The reading wavelength was fixed at 410 nm, 3 s shaking before each reading, and a 1-hour kinetic data was obtained by a reading interval of 20 or 60 seconds. Negative control group (blank) was prepared by adding 20 µL pure solvent instead of extract in the first step.
The tendency of readings in the first 3 minutes were regarded as linear growth, and the slope was calculated by linear regression in Excel (Office 2016, Microsoft, USA). The inhibition activity of each sample is calculated in percentage inhibition by Eq. 1.
Comparator PL Inhibitory Assay (pNPP as substrate). p-Nitrophenyl palmitate (pNPP) is a synthetic chemical probe widely used in PL inhibitory assay. Long chain fatty acid (palmitic acid) and chromatic indicator (p-nitrophenol) are linked by an ester bond, and the molecule works as a substrate of PL. Hydrolyzed by PL in buffer solution, pNPP molecules release the indicators, and a yellowish color is presented. PL activity is indicated by the speed of color gain by time, and the color could be measured by optical density at 410 nm by a spectrometer. […] According to Michaelis-Menten equation, PL activity could be presented by the initial rate of the reaction. […] The inhibition is calculated percentage by Eq.1, and a dose-response curve could be plotted according to PL inhibition under different inhibitor concentrations (FIG. 1B). Fitting with proper model, IC50 could be calculated by plugging 50% into the fitted formula.

[1] = isolated resin glycosides of sweet potato tuber, read-out: PL inhibition IC50
[2] = lipase inhibition, resin glycosides in fraction F5.1.23.34 of sweet potato tuber, read-out: IC50
[3] = lipase inhibition, resin glycosides in fraction F5.1.23.34 of sweet potato tuber, read-out: IC50 (µg/mL) (converted)
[4] = lipase inhibition, resin glycosides in fraction F5.1.23.34 of sweet potato tuber

| IC50 [1] [µM] | IC50 [2] [µM] | IC50 [3] [µM] | IC50 (µg/mL) [4] [µg/mL] | Compound |
| --- | --- | --- | --- | --- |
| 4.9 to 6.7 | 4.9 | 4.91 | – | CCCCC[C@H]1CCCCCCCCCC(=O)O[C@H]2[C@H](O[C@H]3[C@H](O1)O[C@H](C)[C@H](O)[C@@H]3O)O[C@@H](C)[C@H](O[C@@H]1O[C@@H](C)[C@H](O[C@@H]3O[C@@H](C)[C@H](OC(=O)[C@@H](C)CC)[C@@H](OC(=O)/C=C/c4ccccc4)[C@H]3O)[C@@H](O[C@@H]3O[C@@H](C)[C@H](O)[C@@H](O)[C@H]3O)[C@H]1OC(=O)[C@@H](C)CC)[C@H]2O [Batatoside III] |
| – | 6.7 | – | 8.5 | Batataoside I |
| – | 6 | – | 7.6 | Batataoside II |
| 4.9 to 6.7 | 5.6 | 5.61 | – | CCCCCC1CCCCCCCCCC(=O)OC2C(O)C(OC(C)C2OC2OC(C)C(OC3OC(C)C(OC(=O)C(C)CC)C(OC(=O)C=Cc4ccccc4)C3O)C(OC3OC(C)C(O)C(O)C3O)C2OC(=O)C(C)CC)OC2C(O1)OC(C)C(O)C2O (stereo not shown) [Pescaprein XXVII] |

From patent publication US20230310532A1, “FOOD EXTRACTS, METHODS OF EXTRACTION AND COMPOSITIONS THEREOF” (National University of Singapore, priority 2020, published 2023)
